Laboratory results as given in ChEMBL document CHEMBL1121455, “N-(alpha-Hydroxyalkanoyl) derivatives of Leu-Val-Phe-OCH3 as inhibitors of renin” (J Med Chem, 1980).
Residues, ends and D or L forms follow the SMILES beside them.

Molecular target: T1, Renin (Homo sapiens, UniProt P00797)
T1 sequence (P00797 whole entry): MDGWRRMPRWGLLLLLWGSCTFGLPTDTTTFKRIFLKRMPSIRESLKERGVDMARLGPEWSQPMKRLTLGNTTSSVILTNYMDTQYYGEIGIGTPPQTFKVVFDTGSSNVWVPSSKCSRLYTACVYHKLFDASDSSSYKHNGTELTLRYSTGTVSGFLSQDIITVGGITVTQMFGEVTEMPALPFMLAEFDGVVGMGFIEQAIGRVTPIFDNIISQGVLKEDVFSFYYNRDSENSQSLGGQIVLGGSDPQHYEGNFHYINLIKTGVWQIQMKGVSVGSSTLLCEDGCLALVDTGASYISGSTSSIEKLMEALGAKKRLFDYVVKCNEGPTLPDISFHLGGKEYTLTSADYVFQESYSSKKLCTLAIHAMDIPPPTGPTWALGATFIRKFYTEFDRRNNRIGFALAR
Assay: Inhibition of human amniotic renin was tested and determined by Dixon plots

Row | Compound | Ki [µM]
1 | COC(=O)[C@H](Cc1ccccc1)NC(=O)[C@@H](NC(=O)[C@H](CC(C)C)NC(=O)[C@@H](O)CC(C)C)C(C)C | 230
2 | COC(=O)[C@H](Cc1ccccc1)NC(=O)[C@@H](NC(=O)[C@H](CC(C)C)NC(=O)[C@@H](O)C(C)C)C(C)C | 300
3 | COC(=O)[C@H](Cc1ccccc1)NC(=O)[C@@H](NC(=O)[C@H](CC(C)C)NC(=O)[C@H](O)c1ccccc1)C(C)C | 980
4 | COC(=O)[C@H](Cc1ccccc1)NC(=O)[C@@H](NC(=O)[C@H](CC(C)C)NC(=O)[C@@H](O)c1ccccc1)C(C)C | 530
5 | COC(=O)[C@H](Cc1ccccc1)NC(=O)[C@@H](NC(=O)[C@H](CC(C)C)NC(=O)[C@H](O)CC(C)C)C(C)C | 600
6 | COC(=O)[C@H](Cc1ccccc1)NC(=O)[C@@H](NC(=O)[C@H](CC(C)C)NC(=O)[C@H](O)C(C)C)C(C)C | 1780
7 | COC(=O)[C@H](Cc1ccccc1)NC(=O)[C@@H](NC(=O)[C@H](CC(C)C)NC(=O)[C@@H](N)CC(C)C)C(C)C (HELM PEPTIDE1{L.L.V.F.[CO[*:1]]}$$$$V2.0) | 1140
8 | COC(=O)[C@H](Cc1ccccc1)NC(=O)[C@@H](NC(=O)[C@H](CC(C)C)NC(=O)[C@@H](O)Cc1ccccc1)C(C)C (HELM PEPTIDE1{[O=C([C@@H](O)Cc1ccccc1)[*:2]].L.V.F.[CO[*:1]]}$$$$V2.0) | 670
